pEC50: −log10 of the molar value. Where two headings read alike, the source gives them in different places.
Experiments:
[1] = system: Hepatitis B virus; test: Secondary anti-Hepatitis B virus assay, quantitative polymerase chain reaction (intracellular DNA); type: cell-based, Hepatitis B virus (Hepatitis B-adr); conditions: for Sl50 - CC50/EC50 / Sl90 - CC50/EC90: selectivity index; for pEC50 / EC90: Hepatitis B-adr, intracellular DNA by qPCR, vehicle DMSO, unit from conc. ranges in the 1st table; for pEC50: read-out: EC50 - compound concentration that reduces viral replication by 50%; for EC90: read-out: EC90 - compound concentration that reduces viral replication by 90%
Method: (§1) Hepatitis B antiviral assays (Korba & Gerin, 1992, Antivir. Res. 19:55) are conducted using confluent cultures of 2.2.15 cells (genotype ayw; parental cell HepG2) maintained on 96-well flat-bottomed tissue culture plates (confluence in this culture system is required for active, high levels of Hepatitis B replication equivalent to that observed in chronically-infected individuals (Sells, et al., 1988, J. Virol. 62:2836; Korba and Gerin, 1992, Antivir. Res. 19:55). Cultures are treated for 7 days. Typically, 4 doses (10-fold or 3-fold steps), in triplicate are used. Hepatitis B DNA levels in the culture medium (representing Hepatitis B virion production) are assessed by quantitative blot hybridization 24 hrs. after the last treatment. Cytotoxicity is assessed by uptake of neutral red dye 24 hr. following the last treatment. Lamivudine (LMV) is used as the standard assay control, but other control compounds are also available.
EC50, EC90 and CC50 values are calculated by linear regression analysis (MS EXCEL®, QuattroPro®) using data combined from all treated cultures (Korba & Gerin, 1992, Antivir. Res. 19:55; Okuse, et al., 2005, Antivir. Res. 65:23). Standard deviations for EC50 and EC90 values are calculated from the standard errors generated by the regression analyses. EC50 and EC90 are drug concentrations at which a 2-fold, or a 10-fold depression of Hepatitis B DNA (relative to the average levels in untreated cultures), respectively, is observed. CC50 is the drug concentration at which a 2-fold lower level of neutral red dye uptake (relative to the average levels in untreated cultures) is observed. The Selectivity index (S.I.) is calculated as CC50/EC90 since at least a 3-fold depression of Hepatitis B DNA levels is typically required to achieve statistical significance in this assay system (Korba & Gerin, 1992, Antivir. Res. 19:55).
Confluent cultures of HepG2 2.2.15 cells maintained on 48-well flat-bottomed tissue culture plates are treated as described for the primary assay. Hepatitis B virion DNA levels in the culture medium and cytotoxicity are assessed as described for the primary assay. […] Res. 19:55). EC50, EC90, and S.I. values are calculated for both virion DNA and intracellular Hepatitis B DNA replication intermediates.

[2] = Cell Titer 96 (Toxicity) in the secondary assay; type: cell-based; conditions: human, HepG2 2.2.15 cells (confluent cultures), unit from conc. ranges in the 1st table, read-out: CC50 - compound concentration that reduces cell viability by 50%
[3] = system: Hepatitis B virus; test: Primary anti-Hepatitis B virus assay (primary screen); type: cell-based; conditions: data confirmed in the secondary assay
Method: as §1
EC50, EC90 and CC50 values are calculated by linear regression analysis (MS EXCEL®, QuattroPro®) using data combined from all treated cultures (Korba & Gerin, 1992, Antivir. Res. 19:55; Okuse, et al., 2005, Antivir. Res. 65:23). Standard deviations for EC50 and EC90 values are calculated from the standard errors generated by the regression analyses. […]

[4] = system: HepG2 2.2.15; test: Cell Titer 96 (Toxicity) in the secondary assay; type: cell-based; conditions: HepG2 2.2.15 cells, unit from conc. ranges in the 1st table, read-out: CC50 - compound concentration that reduces cell viability by 50%
[5] = Hepatitis B virus, HepG2 2.2.15, HepG2 2.2.15 cells
[6] = HepG2 2.2.15 cells, listed as 3TC (1)
[7] = HepG2 2.2.15 cells, listed as 3TC (2)
[8] = HepG2 2.2.15 cells, listed as 3TC (3)

Row | SMILES | Sl50 - CC50/EC50 ([1]; HepG2 2.2.15 cells) | Sl90 - CC50/EC90 ([1]; HepG2 2.2.15 cells) | pEC50 [1, 5] | EC90 [1, 5] | CC50 at 7 days [2] | activity in the primary screen [3] | pEC50 [1, 6] | EC90 [1, 6] | EC90 [1, 7] | pEC50 [1, 8] | EC90 [1, 8] | Sl50 - CC50/EC50 [1, 6] | Sl50 - CC50/EC50 [1, 7] | Sl50 - CC50/EC50 [1, 8] | CC50 ([4]; listed as 3TC (1)) | CC50 ([4]; listed as 3TC (2)) | CC50 ([4]; listed as 3TC (3))
1 | CCC[C@H](Nc1nc(-c2ccc(NC(=O)NCC)c(OC)c2)ncc1C)c1cccnc1 (stereo in doubt) [Compound 1A, 1-ethyl-3-(2-methoxy-4-(5-methyl-4-((1-(pyridine-3-yl)butyl)amino)pyrimidin-2-yl)phenyl)urea] | >80 | 1 | > 6.49 | 710 nM | 25400 nM | active |  |  |  |  |  |  |  |  |  |  | 
2 | Nc1ccn([C@@H]2CS[C@H](CO)O2)c(=O)n1 [Compound 3TC, 2′,3′-dideoxy-3′-thiacytidine] |  | 1 | 7.22 |  |  |  | 7.40 | > 500 nM | > 1000 nM | 7.30 | > 2000 nM | >12 | >15 | >43 | > 500 nM | > 1000 nM | > 2000 nM
